These results are taken from publication PMC11314205, “Incorporation of an Isohexide Subunit into the Endochin-like Quinolone Scaffold” (Molecules, 2024).

Values after ≈ are worked out from the molar mass of the structure shown. “Also recorded” adds a separate entry of the source. Read-outs that look alike come from different tables or passages of the source.

One may read the EC50 as the concentration at which the effect is half-maximal. Broadly, the thermodynamic solubility is the concentration in solution at equilibrium with solid. For orientation: IC50 means the midpoint of a concentration-inhibition curve. The term melting point denotes the temperature, or range, at which the solid turns liquid.

For data set [1], the system named is chloroquine-sensitive Plasmodium falciparum strain 3D7 (MRA-102). Nature of the data set: In vitro screening against chloroquine-sensitive P. falciparum 3D7. The data set is classed as cell-based. The method, then:
(§1) The ELQs 14–17 were tested against the chloroquine-sensitive Plasmodium falciparum strain 3D7 (MRA-102), as provided by the MR4 Unit of the American Type Culture Collection (ATCC, Manassas, VA, USA). Details of the assay have been previously published. Cytotoxicity IC50 values for 14–17 were obtained on human BJ fibroblasts as previously described. [table]

Data set [2] in a line: Kinetic (report: thermodynamic) solubility in pH 7.4 phosphate buffer, quantitative LC-MS. The data set is classed as physicochemical. The conditions noted are these: phosphate buffer pH 7.4, room temperature, LC-MS (supplementary report); for solubility at 20 h: phosphate buffer, 23 °C, pH 7.4, aqueous buffer, thermodynamic from solid. The method, then: Title: Thermodynamic Solubility Study in Phosphate Buffer 7.4 Date: 02/24/2023 […]
The goal of this study is to determine the thermodynamic solubility values for compounds: JS -13, JS-14, JS-17 and JS-18 in phosphate buffer pH 7.4.
Compound ID Solubility (µM) Solubility (mg/mL)
The scope of the thermodynamic (equilibrium) solubility experiment is to investigate the solubility of the compounds in a saturated solution. For this method, phosphate buffer is added to solid compound and mixed at room temperature for […] to ensure that equilibrium is achieved. To determine concentrations to generate calibration curves and for the equilibrated compounds (in buffer) a general LC-MS method was developed. The method includes a high-resolution separation by a UPLC unit as well as a high sensitivity ion detection by a mass spectrometer equipped with an electrospray ionization probe. For calibration curves the compounds were dissolved in DMSO and diluted by ACN. The supernatant of the equilibrated samples, after a 2-step centrifugation process, were also diluted by ACN to ensure full solubilization.
(1 picture or pasted object on this page, not shown here)
The experiment was carried out as recommended by AstraZeneca’s Mechanistic Biology & Profiling, Discovery Sciences, R&D group (AstraZeneca, Gothenburg, Sweden). The method was published in ASSAY and Drug Development Technologies; Title: “A Fully Integrated Assay Panel for Early Drug Metabolism and […]
• The experiment was performed on December 3, 2022
A Shimadzu LC-40D XR HPLC system equipped with a PDA detector (Model: SPD-M40) and connected to an LCMS-2020 mass spectrometer was utilized for determining sample concentrations. For HPLC separation an XBridge C18 column (4.6x50 mm, […] particle size) from Waters Inc. was used, the column oven temperature was set at 40°C. To determine the concentration of the compounds, eluent A containing 0.1% trifluoroacetic acid (TFA) in water, eluent B containing 0.1% TFA in acetonitrile and a linear gradient (5-100% B in 3 min) were utilized. Molecular ions (MH+) were generated by combined ESI and APCI ionization methods and collected by a DUIS detector. The mass spectrometer was calibrated by standards provided by Shimadz u Scientific Instruments. Single ion monitoring (SIM) methods were used to maximize sensitivity for each compound as described in Table […]
Compound ID Primary Ion Secondary Ion Note
+ + 414.15+ is identical to MH+ generated
• To establish calibration curves, the weighted compounds were dissolved in 100 µL of dimethyl sulfoxide (DMSO) and diluted by 400 µL of acetonitrile (ACN). The stock solution was further diluted by ACN (5x, in 5 steps). For all LC-MS experiments 5 µL sample was injected. To perform equilibration studies, 500 µL phosphate buffer was added to each weighted compound. The results slurries were stirred at room temperature for 20 hr. After equilibration, the samples were transferred to […]
Eppendorf tubes and centrifuged for 30 min at 2,000 x g. 200 µL of the supernatant of each sample was transferred and centrifuged again f or 30 min at 2,000 x g. Dilution and LC-MS analyses were performed as described for the calibration curves.
ACN, DMSO and HPLC quality water were purchased from MilliporeSigma Inc.
TFA (99.9% purity) was from Chem-Impex International Inc.
• The data was archived in the MD&S Laboratory electronic notebook (ChemCart, DeltaSoft Inc.) on […]
• Data processing software used: Microsoft Office 365 – Excel.
3.1 Structures, molecular weights
Compound Chemical Exact SMILE
[C@]4([H])OC3)C=C2)=C(C)NC5=CC=C(Cl)C=C51
[H])OC3)C=C2)=C(C)NC5=CC=C(Cl)C=C51
4([H])OC3)C=C2)=C(C)NC5=CC=C(Cl)C=C51
C@]4([H])OC3)C=C2)=C(C)NC5=CC=C(Cl)C=C51
Table 2. Compound IDs, chemical formulas, exact (monoisotopic) molecular weights, SMILE notations

Assay in data set [3]: as above
The data set is classed as physicochemical. The note with it: 23 °C.

Data set [4] is described as follows: Cytotoxicity on BJ fibroblasts, CTG reagent. The data set is classed as cell-based. The note with it: human BJ fibroblasts, 72 h exposure at 37 °C, read-out: Cytotox. IC50. The method, then:
as §1

Data set [5] has as its system Dd2. Further details: method as in PMID 24720377. The conditions noted are these: strain Dd2; cited from earlier work.
Data set [6] relates to Tm90-C2B. On the set-up: method as in PMID 24720377. The note with it: strain Tm90-C2B; cited from earlier work.
The subject of data set [7] is human hepatoma-derived HepG2 cells. Further details: method as in PMID 24720377. The conditions noted are these: read-out: Cytotox. IC50; cited from earlier work.
For data set [8], the system named is D6. On the set-up: method as in PMID 24720377. The note with it: strain D6; cited from earlier work.
Details of data set [9]: method as in PMID 23515079. The note with it: cited from earlier work.
Where [10] appears, read: P. falciparum strain 3D7, read-out: EC50 (antimalarial potency).
Setting [11] is: chloroquine-sensitive P. falciparum strain 3D7, read-out: EC50.

Regarding `Cc1[nH]c2ccc(Cl)cc2c(=O)c1-c1ccc(O[C@H]2CO[C@H]3[C@@H]2OC[C@@H]3O)cc1` [Compound 15, 6-Chloro-3-(4-(((3S,3aR,6S,6aR)-6-hydroxyhexahydrofuro[3,2-b]furan-3-yl)oxy)phenyl)-2-methylquinolin-4(1H)-one], in [1] (setting [10]), the EC50 is > 1000 nM. The solubility at 20 h worked out at 95 µM in data set [2] (read-out: Solubility) and 0.039 mg/mL in [2] (read-out: Solubility (mg/mL)).

Turning to `Cc1[nH]c2ccc(Cl)cc2c(=O)c1-c1ccc(OC2COC3C(O)COC23)cc1` (centres unmarked) [C00004], the solubility (thermodynamic) at 20 h in data set [3] amounted to 95 µM (≈ 39.3 µg/mL). For the same molecule, in data set [1] (setting [11]), the EC50 is > 1000 nM. Besides, the IC50 at 72 h in data set [4] was > 100000 nM.

In the case of `COCCO[C@H]1CO[C@H]2[C@@H]1OC[C@@H]2Oc1ccc(-c2c(C)[nH]c3ccc(Cl)cc3c2=O)cc1` [Compound 17, 6-Chloro-3-(4-(((3S,3aR,6S,6aR)-6-(2-methoxyethoxy)hexahydrofuro[3,2-b]furan-3-yl)oxy)phenyl)-2-methylquinolin-4(1H)-one], in data set [1] (setting [10]), the EC50 was > 1000 nM. The solubility at 20 h came out at 127 µM in data set [2] (read-out: Solubility) and 0.06 mg/mL in data set [2] (read-out: Solubility (mg/mL)).

Take `COc1cc2[nH]c(C)c(-c3ccc(Oc4ccc(OC(F)(F)F)cc4)cc3)c(=O)c2cc1Cl` [C00001]: the EC50 was 2.5 nM in [5], 1.4 nM in data set [6] and 2.2 nM in [8]. For the same molecule, in data set [7], the IC50 was > 10000 nM. In addition, the “Kinetic Solubility” value in [9] is on record as 16 µM.

`CC(=O)O[C@H]1CO[C@H]2[C@@H]1OC[C@@H]2Oc1ccc(-c2c(C)[nH]c3ccc(Cl)cc3c2=O)cc1` [Compound 14, (3S,3aR,6S,6aR)-6-(4-(6-Chloro-2-methyl-4-oxo-1,4-dihydroquinolin-3-yl)phenoxy)hexahydrofuro[3,2-b]furan-3-yl Acetate]: the melting point is 298 to 299 °C. Moreover, the concentration for a half-maximal effect (EC50) in data set [1] (setting [10]) is > 1000 nM. Moreover, the “Solubility (M)” value in [2] (listed as JS-13) is recorded as “Unstable in buffer; also recorded: hydrolyzed under equilibrating conditions”.

As to `Cc1[nH]c2ccc(Cl)cc2c(=O)c1-c1ccc(Oc2ccc(OC(F)(F)F)cc2)cc1` [C00002], the figures for the EC50 in [5], in data set [6] and in [8] were 5.6 nM, 2.3 nM and 3.2 nM, respectively. Besides, the IC50 in [7] was > 10000 nM.

As for `CC(=O)OC1COC2C(Oc3ccc(-c4c(C)[nH]c5ccc(Cl)cc5c4=O)cc3)COC12` (centres unmarked) [C00003], the EC50 in [1] (setting [11]) was > 1000 nM. In addition, the 50% inhibitory concentration (IC50) at 72 h in [4] was > 100000 nM.

In turn, `COCCOC1COC2C(Oc3ccc(-c4c(C)[nH]c5ccc(Cl)cc5c4=O)cc3)COC12` (centres unmarked) [C00006] gave a solubility (thermodynamic) at 20 h in data set [3] of 127 µM (≈ 59.9 µg/mL). The EC50 in [1] (setting [11]) is > 1000 nM. In data set [4], the IC50 at 72 h was > 100000 nM.

Turning to `CO[C@H]1CO[C@H]2[C@@H]1OC[C@@H]2Oc1ccc(-c2c(C)[nH]c3ccc(Cl)cc3c2=O)cc1` [Compound 16, 6-Chloro-3-(4-(((3S,3aR,6S,6aR)-6-methoxyhexahydrofuro[3,2-b]furan-3-yl)oxy)phenyl)-2-methylquinolin-4(1H)-one], in data set [1] (setting [10]), the EC50 was > 1000 nM. The solubility at 20 h was 22 µM in [2] (read-out: Solubility) and 0.009 mg/mL in data set [2] (read-out: Solubility (mg/mL)).

As to `COC1COC2C(Oc3ccc(-c4c(C)[nH]c5ccc(Cl)cc5c4=O)cc3)COC12` (centres unmarked) [C00005], the solubility (thermodynamic) at 20 h in [3] amounted to 22 µM (≈ 9.41 µg/mL). Moreover, the EC50 in data set [1] (setting [11]) is > 1000 nM. Also, in data set [4], the IC50 at 72 h was > 100000 nM.
